# Data from patent US20180343865A1, “HERBICIDAL COMPOSITIONS COMPRISING ISOXAZOLO[5,4-B]PYRIDINES” (BASF SE, priority 2015, published 2018).
# Where “and” joins values, the source holds several entries; their conditions need not be identical. Equal values may be shown once. Read-outs that look alike come from different tables or passages of the source.
# Tests used:
# Type in all cases: in vivo
# [1] = system: Polygonum convolvulus; experiment: Greenhouse postemergence herbicidal activity on POLCO, 20 DAT; details: Fallopia convolvulus, post-emergence, POLCO, postemergence; for inhibition at 62.5 g/ha: 62.5 gai/ha
# Protocol: (§1) For the post emergence treatment, the plants were first grown to the 2 leaf station (GS 12) and applied at GS 12-19 depending on the species. The herbicidal compositions were suspended or emulsified in water as distribution medium and sprayed using finely distributing nozzles.
# (§2) The plants have been cultivated due to their individual requirements at 10 to 25° C. and. 20 to 35° C. The plants were irrigated due to their necessity.
# (§3) The respective stated components A), were formulated as a 5% by weight strength emulsion concentrate containing wettol EM 31 20% and Cyclohexanone 80%. The respective stated components B), were formulated as either emulsifiable concentrates (EC), soluble liquids (SL), suspension concentrates (SC) or soluble granules (SG) as indicated in the table below. Component A, component B and the solvent system are introduced into the spray liquor used for applying the active compound. In the examples, the solvent used was water containing 1% Dash (Agnique ME 181 37.5%, Lutensit A-EP 22.5%, and Oleic Acid 5%) and 2% ammonium suflate.
# (§4) In the following experiments, the herbicidal activity for the individual herbicide compounds (solo and mixture applications), the herbicidal succession was assessed 20 days after treatment (DAT). The evaluation for the damage on undesired weeds caused by the chemical compositions was carried out using a scale from 0 to 100%, compared to the untreated control plants. Here, 0 means no damage and 100 means complete destruction of the plants. The plants used in the greenhouse experiments belonged to the following species:
# (§5) The value E, which corresponds to the effect (in %) that is to be expected if the activity of the individual compounds is additive, was calculated using the method of S. R. Colby (1967) “Calculating synergistic and antagonistic responses of herbicide combinations”, Weeds 15, p. 22 ff. Colby calculation for 2 way mixtures:
# (§6) where: • X=effect in percent using herbicide A at an application rate a; • Y=effect in percent using herbicide B at an application rate b; • E=expected effect (in %) of A+B at application rates a+b
# (§7) If the value observed in this manner is higher than the value E calculated according to Colby, a synergistic effect is present.
# [2] = system: Chenopodium album; experiment: Greenhouse postemergence herbicidal activity on CHEAL, 20 DAT; details: for inhibition at 15.6 g/ha: 15.6 gai/ha; for inhibition at 125 g/ha: 125 gai/ha; for inhibition at 250 g/ha: 250 gai/ha
# Protocol: as §1, §2, §3, §4, §5, §6, §7
# [3] = system: Conyza canadiensis; experiment: Greenhouse postemergence herbicidal activity on ERICA, 20 DAT; details: Conyza, post-emergence, ERICA, postemergence; for inhibition at 31.25 g/ha: 31.25 gai/ha
# Protocol: as §1, §2, §3, §4, §5, §6, §7
# [4] = system: Ipomoea hederacea; experiment: Greenhouse postemergence herbicidal activity on IPOHE, 20 DAT; details: for inhibition at 125 g/ha: 125 gai/ha
# Protocol: as §1, §2, §3, §4, §5, §6, §7
# [5] = system: Matricaria chamomilla; experiment: Greenhouse postemergence herbicidal activity on MATCH, 20 DAT; details: Matricaria chamomilla, post-emergence, 62.5 gai/ha
# Protocol: as §1, §2, §3, §4, §5, §6, §7
# [6] = system: Polygonum aviculare; experiment: Greenhouse postemergence herbicidal activity on POLAV, 20 DAT; details: Polygonum aviculare, post-emergence, 480 h, read-out: % activity, solo (I.A)
# Protocol: as §1, §2, §3, §4, §5, §6, §7
# [7] = system: Polygonum persicaria; experiment: Greenhouse postemergence herbicidal activity on POLPE, 20 DAT; details: Persicaria maculosa, post-emergence, 480 h, POLPE, postemergence, 20 DAT, read-out: % activity, solo (I.A)
# Protocol: as §1, §2, §3, §4, §5, §6, §7
# [8] = system: Sorghum bicolor; experiment: Greenhouse postemergence herbicidal activity on SORVU, 20 DAT; details: Sorghum bicolor, post-emergence, 480 h, SORVU, postemergence, 20 DAT, read-out: % activity, solo (I.A)
# Protocol: as §1, §2, §3, §4, §5, §6, §7
# [9] = system: Sinapis arvensis; experiment: Greenhouse postemergence herbicidal activity on SINAR, 20 DAT; details: Mutarda arvensis, post-emergence, 480 h, read-out: % activity, solo (I.A)
# Protocol: as §1, §2, §3, §4, §5, §6, §7
# [10] = system: Galium aparine; experiment: Greenhouse postemergence herbicidal activity on GALAP, 20 DAT; details: Galium aparine, post-emergence; for inhibition at 31.25 g/ha: 31.25 gai/ha; for inhibition at 62.5 g/ha: 62.5 gai/ha; for inhibition at 125 g/ha: 125 gai/ha; for inhibition at 250 g/ha: 250 gai/ha
# Protocol: as §1, §2, §3, §4, §5, §6, §7
# [11] = system: ALOMY; experiment: Greenhouse postemergence herbicidal activity on ALOMY, 20 DAT; details: Alopecurus myosuroides, post-emergence, Table 8, read-out: % activity, solo application (I.A)
# [12] = system: APESV; experiment: Greenhouse postemergence herbicidal activity on APESV, 20 DAT; details: post-emergence, Table 8, read-out: % activity, solo application (I.A)
# [13] = system: AVEFA; experiment: Greenhouse postemergence herbicidal activity on AVEFA, 20 DAT; details: Avena fatua, post-emergence, Table 8, read-out: % activity, solo application (I.A)
# [14] = 480 h, 15.6 gai/ha, 20 DAT, read-out: % activity, solo (I.A)
# [15] = Table 6, read-out: % activity, solo application (I.A)
# [16] = Table 8, read-out: % activity, solo application (I.A)
# [17] = Chenopodium album, post-emergence, Table 6, read-out: % activity, solo application (I.A)
# [18] = Chenopodium album, post-emergence, 480 h, 20 DAT, read-out: % activity, solo (I.A)
# [19] = 480 h, 20 DAT, read-out: % activity, solo (I.A)
smiles,measurement,setting,value
CC(C)c1noc2nc(C3CC3)cc(C(=O)O)c12 [(I.A)],inhibition at 15.6 g/ha,[1]; [14],30%
same,inhibition at 31.25 g/ha,"[1]; 31.25 gai/ha, Table 6, read-out: % activity, solo application (I.A)",73%
same,inhibition at 62.5 g/ha,[1]; [15],95%
same,inhibition at 62.5 g/ha,[1]; [16],35%
same,inhibition at 125 g/ha,"[1]; 125 gai/ha, Table 6, read-out: % activity, solo application (I.A)",99%
same,"% activity, solo (I.A)","[2]; 62.5 gai/ha, 20 DAT",65% and 93%
same,inhibition at 7.8 g/ha,"[2]; Chenopodium album, post-emergence, 7.8 gai/ha, Table 8, read-out: % activity, solo application (I.A)",50%
same,inhibition at 15.6 g/ha,"[2]; Chenopodium album, post-emergence, Table 8, read-out: % activity, solo application (I.A)",85%
same,inhibition at 31.25 g/ha,"[2]; Chenopodium album, post-emergence, 31.25 gai/ha, Table 6, read-out: % activity, solo application (I.A)",58%
same,inhibition at 62.5 g/ha,"[2]; Chenopodium album, post-emergence, 62.5 gai/ha, Table 6, read-out: % activity, solo application (I.A)",78%
same,inhibition at 125 g/ha,[2]; [17],83%
same,inhibition at 250 g/ha,[2]; [17],98%
same,inhibition at 15.6 g/ha,[2]; [18],10%
same,inhibition at 125 g/ha,[2]; [18],83%
same,inhibition at 250 g/ha,[2]; [18],98%
same,inhibition at 15.6 g/ha,[3]; [14],40%
same,inhibition at 31.25 g/ha,[3]; [19],40%
same,inhibition at 62.5 g/ha,"[3]; 480 h, 62.5 gai/ha, 20 DAT, read-out: % activity, solo (I.A)",90%
same,inhibition at 31.25 g/ha,[3]; [16],35%
same,"% activity, solo (I.A)","[4]; 31.25 gai/ha, 20 DAT",95%
same,"% activity, solo (I.A)","[4]; 62.5 gai/ha, 20 DAT",95%
same,inhibition at 31.25 g/ha,"[4]; Ipomoea hederacea, post-emergence, 31.25 gai/ha, Table 6, read-out: % activity, solo application (I.A)",75%
same,inhibition at 31.25 g/ha,"[4]; Ipomoea hederacea, post-emergence, 31.25 gai/ha, Table 8, read-out: % activity, solo application (I.A)",50%
same,inhibition at 62.5 g/ha,"[4]; Ipomoea hederacea, post-emergence, 62.5 gai/ha, Table 6, read-out: % activity, solo application (I.A)",87%
same,inhibition at 125 g/ha,"[4]; Ipomoea hederacea, post-emergence, Table 6, read-out: % activity, solo application (I.A)",98%
same,inhibition at 128 g/ha,"[4]; Ipomoea hederacea, post-emergence, 128 gai/ha, Table 6, read-out: % activity, solo application (I.A)",98%
same,inhibition at 250 g/ha,"[4]; Ipomoea hederacea, post-emergence, 250 gai/ha, Table 6, read-out: % activity, solo application (I.A)",99%
same,inhibition at 15.6 g/ha,"[4]; Ipomoea hederacea, post-emergence, 480 h, 15.6 gai/ha, 20 DAT, read-out: % activity, solo (I.A)",65%
same,inhibition at 31.25 g/ha,"[4]; Ipomoea hederacea, post-emergence, 480 h, 31.25 gai/ha, 20 DAT, read-out: % activity, solo (I.A)",75%
same,inhibition at 62.5 g/ha,"[4]; Ipomoea hederacea, post-emergence, 480 h, 62.5 gai/ha, 20 DAT, read-out: % activity, solo (I.A)",87%
same,inhibition at 125 g/ha,"[4]; Ipomoea hederacea, post-emergence, 480 h, 20 DAT, read-out: % activity, solo (I.A)",98%
same,inhibition at 62.5 g/ha,[5]; [16],70%
same,inhibition at 62.5 g/ha,[5]; [19],65%
same,inhibition at 15.6 g/ha,[6]; 15.6 gai/ha,10%
same,inhibition at 31.25 g/ha,[6]; 31.25 gai/ha,35%
same,inhibition at 62.5 g/ha,[6]; 62.5 gai/ha,50%
same,inhibition at 125 g/ha,[6]; 125 gai/ha,90%
same,inhibition at 15.6 g/ha,[7]; 15.6 gai/ha,70%
same,inhibition at 31.25 g/ha,[7]; 31.25 gai/ha,80%
same,inhibition at 15.6 g/ha,[8]; 15.6 gai/ha,30%
same,inhibition at 31.25 g/ha,[8]; 31.25 gai/ha,30%
same,inhibition at 62.5 g/ha,[8]; 62.5 gai/ha,30%
same,inhibition at 125 g/ha,[8]; 125 gai/ha,40%
same,inhibition at 15.6 g/ha,[9]; 15.6 gai/ha,95%
same,inhibition at 31.25 g/ha,[9]; 31.25 gai/ha,78%
same,inhibition at 62.5 g/ha,[9]; 62.5 gai/ha,83%
same,inhibition at 125 g/ha,[9]; 125 gai/ha,90%
same,inhibition at 31.25 g/ha,[10]; [15],43%
same,inhibition at 62.5 g/ha,[10]; [15],60%
same,inhibition at 62.5 g/ha,[10]; [16],45%
same,inhibition at 125 g/ha,[10]; [15],73%
same,inhibition at 250 g/ha,[10]; [15],95%
same,inhibition at 31.25 g/ha,[10]; [19],43%
same,inhibition at 62.5 g/ha,[10]; [19],60%
same,inhibition at 125 g/ha,[10]; [19],73%
same,inhibition at 250 g/ha,[10]; [19],95%
same,inhibition at 15.6 g/ha,[11]; 15.6 gai/ha,0%
same,inhibition at 31.25 g/ha,[11]; 31.25 gai/ha,0%
same,inhibition at 62.5 g/ha,[11]; 62.5 gai/ha,20%
same,inhibition at 15.6 g/ha,[12]; 15.6 gai/ha,0%
same,inhibition at 31.25 g/ha,[12]; 31.25 gai/ha,0%
same,inhibition at 62.5 g/ha,[12]; 62.5 gai/ha,0%
same,inhibition at 15.6 g/ha,[13]; 15.6 gai/ha,0%
same,inhibition at 62.5 g/ha,[13]; 62.5 gai/ha,20%
